We go through seven compounds from ChEMBL document CHEMBL1201862, “PubChem BioAssay data set” (2004).

Among the test systems are SNB-75; T47D; SK-MEL-2; UACC-62; CAKI-1; HCT-116; SK-MEL-28; A549; KM12; HOP-92; MDA-N; UACC-257; LOX IMVI; IGROV-1; TK-10; NCI-H23; NCI-H522; SF-268; SN12C; HCT-15.
Assay in all cases: NCI tumour cell line growth inhibition, 48 h

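Five compound concentrations were applied to cells in 96-well plates for 48 hours; endpoints were derived by simple linear interpolation of the resulting dose-response curve. GI50: concentration for 50% inhibition of growth.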 Active and inactive are the calls of the source. No stated cut-off is given here; in the data, active = GI50 up to about 1.1 µM and inactive = higher.

For `Cc1ncc(CO)c(/C=N/CCCCCC/N=C/c2c(CO)cnc(C)c2[O-])c1[O-].[Mg+2]`, the GI50 with SNB-75 is 99.5 µM (inactive); with T47D it was > 100 µM (inactive); in the experiment on SK-MEL-2, > 100 µM (inactive); in the experiment with UACC-62, > 100 µM (inactive); with CAKI-1, > 100 µM (inactive); with HCT-116, > 100 µM (inactive). In addition, the GI50 is > 100 µM (inactive) in the experiment with SK-MEL-28; > 100 µM (inactive) in the experiment on A549; > 100 µM (inactive) in the experiment on KM12; > 44.6 µM (inactive) in the experiment on HOP-92; > 100 µM (inactive) in the experiment with MDA-N; > 100 µM (inactive) with UACC-257. Moreover, the GI50 in the experiment on LOX IMVI, in the experiment with IGROV-1, in the experiment on TK-10, in the experiment with NCI-H23, in the experiment on NCI-H522 and in the experiment with SF-268 was > 100 µM (inactive) in each case. Also, the GI50 in the experiment with SN12C was > 100 µM (inactive); with HCT-15, greater than 100 µM.

With `O=C1NC(=O)c2ccccc2/C1=C/c1ccc2c(c1)OCO2`, the GI50 in the experiment with SNB-75 was 28.1 µM (inactive); with T47D, > 100 µM (inactive); in the experiment on SK-MEL-2, 24.6 µM (inactive); in the experiment on UACC-62, 22.1 µM (inactive); in the experiment with CAKI-1 it was 24.5 µM (inactive); with HCT-116 it was 5 µM (inactive). For the same compound, the GI50 in the experiment with A549 was 34 µM (inactive); with KM12 it was 17 µM (inactive); with HOP-92 it was 27.1 µM (inactive); in the experiment with MDA-N, 26 µM (inactive); with UACC-257 it was 21.4 µM (inactive); in the experiment on LOX IMVI it was 20.9 µM (inactive). The GI50 was 23.7 µM (inactive) in the experiment with IGROV-1; 55.7 µM (inactive) in the experiment with TK-10; 22.3 µM (inactive) in the experiment with NCI-H23; 31.3 µM (inactive) with NCI-H522; 21.8 µM (inactive) in the experiment with SF-268; 19.9 µM (inactive) in the experiment with SN12C. This compound showed a GI50 in the experiment with HCT-15 of 15.6 µM.

Regarding `COC(=O)[C@H](Cc1ccccc1)NC(=O)NCCN(CCNC(=O)N[C@@H](Cc1ccccc1)C(=O)OC)C(=O)N[C@@H](Cc1ccccc1)C(=O)OC`, the GI50 was 20.7 µM (inactive) in the experiment on SNB-75; 22.6 µM (inactive) in the experiment with T47D; 21.8 µM (inactive) in the experiment with SK-MEL-2; 25.5 µM (inactive) in the experiment with UACC-62; > 45.8 µM (inactive) with CAKI-1; 20.3 µM (inactive) in the experiment on HCT-116. The GI50 in the experiment on SK-MEL-28 was 19.4 µM (inactive); in the experiment on A549, 29 µM (inactive); with KM12, 20.9 µM (inactive); in the experiment with HOP-92, 35.4 µM (inactive); in the experiment with MDA-N it was 18.2 µM (inactive); in the experiment on UACC-257, 20.7 µM (inactive). Besides, the GI50 in the experiment on LOX IMVI is 38.4 µM (inactive); in the experiment with TK-10, 20.1 µM (inactive); in the experiment with NCI-H23, 18.9 µM (inactive); in the experiment on NCI-H522, 15.7 µM (inactive); in the experiment on SF-268, 17 µM (inactive); in the experiment on SN12C it was > 10 µM (inactive). The compound also displayed a GI50 with HCT-15 greater than 50.1 µM.

For the compound `C[C@]12CC[C@H](O)C[C@@H]1CC[C@@H]1[C@@H]2CC[C@]2(C)[C@@H](c3cc(C(F)(F)F)[nH]n3)CC[C@@H]12`, the GI50 is 11.6 µM (inactive) in the experiment on SNB-75; 5.26 µM (inactive) in the experiment on T47D; 16.2 µM (inactive) with SK-MEL-2; 14.1 µM (inactive) in the experiment with UACC-62; 13.2 µM (inactive) in the experiment on CAKI-1; 3.35 µM (inactive) in the experiment with HCT-116. In addition, the GI50 in the experiment on SK-MEL-28 is 13.1 µM (inactive); in the experiment on A549, 4.8 µM (inactive); in the experiment on KM12, 10.1 µM (inactive); with HOP-92 it was 2.74 µM (inactive); in the experiment with MDA-N, 10.8 µM (inactive); with UACC-257, 5.69 µM (inactive). In addition, the GI50 was 6.11 µM (inactive) in the experiment on LOX IMVI; 6.32 µM (inactive) in the experiment with IGROV-1; 6.07 µM (inactive) with TK-10; 7.11 µM (inactive) with NCI-H23; > 22.5 µM (inactive) in the experiment with NCI-H522; > 33 µM (inactive) in the experiment with SF-268. Further, the GI50 in the experiment on SN12C is 7.59 µM (inactive); with HCT-15, 6.32 µM.

As to `CCOC(=O)C(=O)NNc1nc2c(s1)C(=O)c1ccccc1C2=O`, the GI50 in the experiment with SNB-75 is 3.65 µM (inactive); in the experiment on T47D, 17.8 µM (inactive); with SK-MEL-2, 3.95 µM (inactive); in the experiment with UACC-62 it was 4.94 µM (inactive); with CAKI-1, 20.3 µM (inactive); in the experiment on HCT-116, 2.68 µM (inactive). The GI50 with SK-MEL-28 was 3.06 µM (inactive); in the experiment on A549, 6.07 µM (inactive); in the experiment with KM12, 9.27 µM (inactive); in the experiment with HOP-92 it was 10.5 µM (inactive); with MDA-N, 1.8 µM (inactive); with UACC-257, 1.71 µM (inactive). Besides, the GI50 was 1.75 µM (inactive) with LOX IMVI; 5.56 µM (inactive) in the experiment on IGROV-1; 24.5 µM (inactive) with TK-10; 2.24 µM (inactive) in the experiment with NCI-H23; 4.49 µM (inactive) in the experiment with NCI-H522; 4.12 µM (inactive) in the experiment with SF-268. For the same compound, the GI50 was 1.87 µM (inactive) in the experiment on SN12C and 2.54 µM in the experiment with HCT-15.

`N[C@H]1c2c(Br)sc(Br)c2C(=O)[C@H]1O`: the GI50 with SNB-75 is 29.2 µM (inactive); in the experiment on T47D it was 21.9 µM (inactive); in the experiment with SK-MEL-2, 23.9 µM (inactive); with UACC-62 it was 6.79 µM (inactive); in the experiment on CAKI-1 it was 0.214 µM (active); in the experiment on HCT-116 it was 16.4 µM (inactive). Also, the GI50 in the experiment on SK-MEL-28 was 10.3 µM (inactive); in the experiment with A549 it was 24.9 µM (inactive); in the experiment with KM12, 34.9 µM (inactive); in the experiment on HOP-92 it was 21.5 µM (inactive); in the experiment on MDA-N it was 13.2 µM (inactive); in the experiment with UACC-257, 14.2 µM (inactive). The GI50 was 3.61 µM (inactive) with LOX IMVI; 14 µM (inactive) with IGROV-1; 96.8 µM (inactive) in the experiment on TK-10; 3.64 µM (inactive) in the experiment on NCI-H23; 3.18 µM (inactive) with NCI-H522; 24.9 µM (inactive) with SF-268. Besides, the results for the GI50 in the experiment with SN12C and with HCT-15 were 1.56 µM (inactive) and 6.78 µM, respectively.

On to `COc1ccc2c(c1)OCC1(O)Cc3ccccc3OC21` (configuration not stated), for which the GI50 in the experiment on SNB-75, in the experiment with T47D, in the experiment with SK-MEL-2, with UACC-62, in the experiment on CAKI-1 and in the experiment with HCT-116 was > 100 µM (inactive) in each case. Further, the GI50 in the experiment on A549, in the experiment with KM12, in the experiment on HOP-92, with MDA-N, in the experiment with UACC-257 and with LOX IMVI was > 100 µM (inactive) throughout. The GI50 in the experiment with IGROV-1, with TK-10, in the experiment with NCI-H23, in the experiment on NCI-H522, in the experiment on SF-268 and in the experiment on SN12C was > 100 µM (inactive) each time. Further, the GI50 with HCT-15 was greater than 100 µM.
